Measured values: patent US11667629B2, “Isoxazole derivative, preparation method therefor, and use thereof” (SICHUAN KELUN-BIOTECH BIOPHARMACEUTICAL CO., LTD., priority 2017, dated 2023)

Assays:
[1] = target: T1, FXR (Homo sapiens, UniProt Q96RI1); assay: Bile acid receptor FXR coactivator binding assay (LanthaScreen TR-FRET); assay type: biochemical
T1 construct: purchased Invitrogen
Protocol: The Invitrogen⋅LanthaScreen™ TR-FRET Farnesoid X Receptor Coactivator Assay kit was employed to determine the activation effect of the compounds on FXR.
After the receptor was incubated with the test compound at various concentrations at room temperature, the fluorescent-labeled coactivator short peptides and terbium-labeled antibody were added, and the FRET signal was detected after the reaction was complete at room temperature. The group without the receptor protein was employed as a blank, the activation effect (EC50) and maximum activation effect signal value (Emax) of the test compounds on FXR were calculated according to the four-parameter fitting equation: y=E min+(E max−E min)/(1+(x/EC50)^(−Hillslope))

[2] = target: T2, FXR (Homo sapiens, UniProt Q96RI1); assay: Luciferase reporter gene assay (HEK293 cotransfected with FXR and human BSEP luciferase reporter); assay type: cell-based
T2 construct: expressed in transfected cells; host or cells: HEK293
T2 sequence (Q96RI1 1-486): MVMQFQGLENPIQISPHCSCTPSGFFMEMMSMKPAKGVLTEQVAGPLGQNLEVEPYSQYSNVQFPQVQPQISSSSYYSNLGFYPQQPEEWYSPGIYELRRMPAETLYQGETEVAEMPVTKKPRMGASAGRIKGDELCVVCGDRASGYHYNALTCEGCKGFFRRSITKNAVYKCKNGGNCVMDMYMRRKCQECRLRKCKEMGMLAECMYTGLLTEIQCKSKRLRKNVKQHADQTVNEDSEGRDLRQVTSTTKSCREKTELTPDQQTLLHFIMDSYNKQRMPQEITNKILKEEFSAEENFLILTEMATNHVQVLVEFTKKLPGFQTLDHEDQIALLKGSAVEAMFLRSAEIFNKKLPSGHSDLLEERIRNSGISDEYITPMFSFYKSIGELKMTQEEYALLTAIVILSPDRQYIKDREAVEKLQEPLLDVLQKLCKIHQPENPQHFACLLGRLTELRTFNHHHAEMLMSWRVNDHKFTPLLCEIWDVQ
Protocol: Human embryonic kidney cells HEK293 were cultured in a DMEM medium containing 10% FBS. Plasmids were cotransfected to allow the cells to have over expression of FXR and human BSEP luciferase reporter genes. The transfected cells were digested, resuspended, counted, and plated in a multi-well plate. 10 μL of the test compound at various concentrations was added to the multi-well plate to result in final concentrations of 64 μM, 16 μM, 4 μM, 1 μM, 0.25 μM, 0.0625 μM, 0.0156 μM, 0.0039 μM, 0.000975 μM, 0.000244 μM, 0 μM, and the final concentration of DMSO was 0.5%. After the test compound was incubated with the cells for 18 hours, the Brigh-Glo™ detection reagent was added, and the chemical light unit value (RLU) was detected by a multifunctional automatic microplate reader. Taking the signal value of the blank well (without the test compound) as 100%, the relative signal percentage (%) at each concentration of the test compound was calculated. The SigmaPlot 10 software was employed to fit the EC50 and the maximum activation effect Emax (relative signal percentage) of the test compounds using a four-parameter model.

[3] = Liver microsomal stability test, rat; assay type: in vitro ADME; details: liver microsomes; rat liver microsome, 1 μM compound, 0.5 mg/mL, NADPH
Protocol: (§1) The test compound (50 μL) was mixed with the liver microsome (100 μL) of each species, after pre-incubation at 37° C. for 5 minutes, NADPH (50 μL) was added, and the incubation was performed for 0, 30, and 60 minutes. The incubation concentrations of the test compound, NADPH, and liver microsomal enzyme were 1 μM, 1 mM, and 0.5 mg/mL, respectively. Ice-cold acetonitrile (200 μL) was added to stop the reaction, and an appropriate volume of the internal standard was then added. After the vortex and centrifugation process, the supernatant was obtained and detected.
(§2) LC-MS/MS, wherein the mass spectrometer was API 5500, and the liquid chromatograph was Shimadzu LC-30AD system. The chromatographic column was Hypersil GOLD C18, 1.9 μm particle size, 50×2.1 mm; mobile phase A was water+0.1% formic acid, phase B was acetonitrile; flow rate was 0.55 mL/min, and column temperature was 40° C. The ion source was an ESI source positive ion mode, and the scanning mode is multiple reaction monitoring (MRM).
(§3) By determining the concentrations of the samples at different incubation time, the rate constant was obtained by plotting “Ln (amount of the remained drug %)” versus “incubation time”. The half-life and liver clearance rate of the drug were then calculated, and were used to evaluate the metabolic stability of the drug in liver microsome.

[4] = Liver microsomal stability test, mouse; assay type: in vitro ADME; details: liver microsomes; mouse liver microsome, 1 μM compound, 0.5 mg/mL, NADPH
Protocol: as §1, §2, §3

[5] = Liver microsomal stability test, dog; assay type: in vitro ADME; details: liver microsomes; dog liver microsome, 1 μM compound, 0.5 mg/mL, NADPH
Protocol: as §1, §2, §3

[6] = Liver microsomal stability test, human; assay type: in vitro ADME
Protocol: as §1, §2, §3

For `O=C(O)c1ccc(-c2csc(N3[C@@H]4CC[C@H]3C[C@@H](OCc3c(-c5ccccc5OC(F)(F)F)noc3C3CC3)C4)n2)cc1C(F)(F)F` [Compound C46, 4-(2-((1R,3r,5S)-3-((5-cyclopropyl-3-(2-(trifluoromethoxy)phenyl)isoxazol-4-yl)methoxy)-8-azabicyclo[3.2.1]octan-8-yl)thiazol-4-yl)-2-(trifluoromethyl)benzoic acid], the EC50 ([1]; TR-FRET coactivator assay, four-parameter fit, read-out: EC50 of the compounds on FXR) was 2 ± 1 nM, the Emax ([1]; read-out: Relative activation effect) was 196% and the EC50 ([2]; HEK293, 18 hours incubation) was 14 ± 5 nM. The Emax ([2]; HEK293, maximum activation effect, relative signal percentage, blank well = 100%) was 301%, the CLint scaled at 1 μM [3] was 0.96 mL/min/kg and the half-life at 1 μM [3] was 16.1 h. The CLint scaled at 1 μM [4] was 15.3 mL/min/kg, the half-life at 1 μM [4] was 2.5 h and the CLint scaled at 1 μM [5] was 8.03 mL/min/kg. The half-life at 1 μM [5] was 4.32 h and the “clearance rate in human liver microsome” value [6] was 14.9 mL/min/kg.
